Results taken from PMC10342707, “Identification of Regulatory Molecular “Hot Spots” for LH/PLOD Collagen Glycosyltransferase Activity” (International Journal of Molecular Sciences, 2023).

Key:
LH3/PLOD3 [1] = molecular target: T1, LH3/PLOD3 (Homo sapiens, UniProt O60568); assay: luminescence-based Glc-T competition assay; assay type: biochemical; details: read-out: UDP-Glc (IC50)
T1 construct: 6xHis-tag and TEV site; secreted from HEK293-F cells
T1 sequence (O60568 25-738): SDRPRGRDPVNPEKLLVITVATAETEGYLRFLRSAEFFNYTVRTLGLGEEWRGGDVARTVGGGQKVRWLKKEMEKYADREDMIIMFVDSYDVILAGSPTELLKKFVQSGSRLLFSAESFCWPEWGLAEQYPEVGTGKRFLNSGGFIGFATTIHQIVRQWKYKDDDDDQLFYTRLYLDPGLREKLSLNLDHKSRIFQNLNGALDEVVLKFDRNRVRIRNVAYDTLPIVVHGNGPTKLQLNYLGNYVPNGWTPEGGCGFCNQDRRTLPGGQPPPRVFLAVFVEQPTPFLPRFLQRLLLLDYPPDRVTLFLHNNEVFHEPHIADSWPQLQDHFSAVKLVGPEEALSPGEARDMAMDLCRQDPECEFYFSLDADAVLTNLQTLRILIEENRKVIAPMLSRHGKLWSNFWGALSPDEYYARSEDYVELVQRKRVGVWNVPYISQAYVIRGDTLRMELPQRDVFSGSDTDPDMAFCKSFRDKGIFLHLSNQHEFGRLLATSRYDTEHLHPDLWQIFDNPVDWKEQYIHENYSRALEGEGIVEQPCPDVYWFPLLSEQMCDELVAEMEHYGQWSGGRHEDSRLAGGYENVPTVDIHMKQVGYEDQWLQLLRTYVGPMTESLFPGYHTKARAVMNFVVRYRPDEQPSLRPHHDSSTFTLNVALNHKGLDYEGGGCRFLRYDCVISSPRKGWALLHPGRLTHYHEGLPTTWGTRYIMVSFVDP
Source text: luminescence-based Glc-T competition assay on LH3/PLOD3

LH3/PLOD3 [2] = molecular target: T1, LH3/PLOD3; assay: differential scanning fluorimetry; assay type: binding; details: 50 mM MnCl2, 5 mM ligand, 25 mM HEPES, 500 mM NaCl, pH 8

IC50 (LH3/PLOD3 [1]) [mM] | thermal shift (LH3/PLOD3 [2]) | SMILES
3.17 ± 0.211 | – | O=c1ccn([C@@H]2O[C@H](COP(=O)(O)OP(=O)(O)O[C@H]3OC[C@@H](O)[C@H](O)[C@H]3O)[C@@H](O)[C@H]2O)c(=O)[nH]1 [UDP-Xyl]
– | 3–3.5 °C | O=c1ccn([C@@H]2O[C@H](COP(=O)(O)OP(=O)(O)O)[C@@H](O)[C@H]2O)c(=O)[nH]1 [UDP]
> 10 | 1–1.5 °C | O=C(O)[C@H]1O[C@H](OP(=O)(O)OP(=O)(O)OC[C@H]2O[C@@H](n3ccc(=O)[nH]c3=O)[C@H](O)[C@@H]2O)[C@H](O)[C@@H](O)[C@@H]1O [UDP-GlcA]
